Measurements: ChEMBL document CHEMBL5696441 (Nat Chem Biol, 2011)

How the values were obtained:
[1] = target: Serine/threonine-protein kinase 17B (Homo sapiens) (UniProt O94768); test: Inhibition of DRAK2 (unknown origin) assessed as remaining activity at 1 uM by Kinome scan method relative to control
[2] = target: Death-associated protein kinase 3 (Homo sapiens) (UniProt O43293); test: Inhibition of DAPK3 (unknown origin) assessed as remaining activity at 1 uM by Kinome scan method relative to control
Chain of Death-associated protein kinase 3 (Homo sapiens) (O43293 whole entry, looked up): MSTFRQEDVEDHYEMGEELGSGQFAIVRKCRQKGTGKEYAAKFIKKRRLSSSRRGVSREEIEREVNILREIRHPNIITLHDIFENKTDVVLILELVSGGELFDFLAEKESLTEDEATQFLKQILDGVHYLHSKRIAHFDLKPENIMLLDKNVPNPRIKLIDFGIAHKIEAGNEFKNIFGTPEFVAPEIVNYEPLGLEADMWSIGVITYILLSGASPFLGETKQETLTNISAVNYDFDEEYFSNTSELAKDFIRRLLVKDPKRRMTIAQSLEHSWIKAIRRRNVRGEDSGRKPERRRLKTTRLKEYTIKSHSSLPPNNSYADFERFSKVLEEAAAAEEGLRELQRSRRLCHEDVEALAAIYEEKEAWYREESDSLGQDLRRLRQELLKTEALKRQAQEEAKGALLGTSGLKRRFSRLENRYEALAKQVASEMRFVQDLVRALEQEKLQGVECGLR

[3] = target: Calcium/calmodulin-dependent protein kinase type II subunit beta (Homo sapiens) (UniProt Q13554); test: Inhibition of human CAMK2B assessed as residual activity at 1 uM using RBER-CHKtide as substrate in presence of 33P-ATP by ProQinase assay relative to control
Chain of Calcium/calmodulin-dependent protein kinase type II subunit beta (Homo sapiens) (Q13554 whole entry): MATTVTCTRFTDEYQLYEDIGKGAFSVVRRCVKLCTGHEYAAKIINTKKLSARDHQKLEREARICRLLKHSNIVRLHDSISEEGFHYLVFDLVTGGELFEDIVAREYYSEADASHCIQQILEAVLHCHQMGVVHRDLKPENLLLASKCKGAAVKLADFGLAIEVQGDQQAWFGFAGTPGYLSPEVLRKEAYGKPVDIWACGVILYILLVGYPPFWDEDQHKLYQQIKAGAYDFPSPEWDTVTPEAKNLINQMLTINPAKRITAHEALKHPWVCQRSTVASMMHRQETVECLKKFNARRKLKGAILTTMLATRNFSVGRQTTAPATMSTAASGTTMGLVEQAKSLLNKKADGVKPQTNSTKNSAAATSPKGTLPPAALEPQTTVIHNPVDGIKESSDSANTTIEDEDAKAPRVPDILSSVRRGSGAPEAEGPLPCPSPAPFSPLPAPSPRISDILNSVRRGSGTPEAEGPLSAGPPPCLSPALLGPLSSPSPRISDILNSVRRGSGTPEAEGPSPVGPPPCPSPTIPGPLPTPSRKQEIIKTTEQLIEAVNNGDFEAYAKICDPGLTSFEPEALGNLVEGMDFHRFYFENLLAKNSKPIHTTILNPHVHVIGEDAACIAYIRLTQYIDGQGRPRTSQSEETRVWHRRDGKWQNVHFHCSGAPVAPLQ

[4] = target: Calcium/calmodulin-dependent protein kinase kinase 1 (Homo sapiens) (UniProt Q8N5S9); test: Inhibition of human CAMKK1 assessed as residual activity at 1 uM using RB-CTF as substrate in presence of 33P-ATP by ProQinase assay relative to control
Chain of Calcium/calmodulin-dependent protein kinase kinase 1 (Homo sapiens) (Q8N5S9 whole entry, looked up): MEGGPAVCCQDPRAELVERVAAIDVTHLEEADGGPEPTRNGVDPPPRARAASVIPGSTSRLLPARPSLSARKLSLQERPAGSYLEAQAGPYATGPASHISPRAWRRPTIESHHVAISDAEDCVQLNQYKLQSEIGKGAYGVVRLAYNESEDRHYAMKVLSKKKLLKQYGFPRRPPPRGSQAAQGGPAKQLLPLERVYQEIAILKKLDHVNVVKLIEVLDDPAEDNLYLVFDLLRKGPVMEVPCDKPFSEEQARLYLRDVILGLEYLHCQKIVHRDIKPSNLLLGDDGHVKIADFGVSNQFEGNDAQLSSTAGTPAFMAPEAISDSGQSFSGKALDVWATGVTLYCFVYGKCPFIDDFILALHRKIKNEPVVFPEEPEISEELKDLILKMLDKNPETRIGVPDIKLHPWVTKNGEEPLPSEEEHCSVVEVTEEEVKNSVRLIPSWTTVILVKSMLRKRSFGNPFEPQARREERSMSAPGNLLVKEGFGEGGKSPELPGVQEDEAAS

[5] = target: Tyrosine-protein kinase FRK (Homo sapiens) (UniProt P42685); test: Inhibition of FRK (unknown origin) assessed as remaining activity at 1 uM by Kinome scan method relative to control
Chain of Tyrosine-protein kinase FRK (Homo sapiens) (P42685 whole entry): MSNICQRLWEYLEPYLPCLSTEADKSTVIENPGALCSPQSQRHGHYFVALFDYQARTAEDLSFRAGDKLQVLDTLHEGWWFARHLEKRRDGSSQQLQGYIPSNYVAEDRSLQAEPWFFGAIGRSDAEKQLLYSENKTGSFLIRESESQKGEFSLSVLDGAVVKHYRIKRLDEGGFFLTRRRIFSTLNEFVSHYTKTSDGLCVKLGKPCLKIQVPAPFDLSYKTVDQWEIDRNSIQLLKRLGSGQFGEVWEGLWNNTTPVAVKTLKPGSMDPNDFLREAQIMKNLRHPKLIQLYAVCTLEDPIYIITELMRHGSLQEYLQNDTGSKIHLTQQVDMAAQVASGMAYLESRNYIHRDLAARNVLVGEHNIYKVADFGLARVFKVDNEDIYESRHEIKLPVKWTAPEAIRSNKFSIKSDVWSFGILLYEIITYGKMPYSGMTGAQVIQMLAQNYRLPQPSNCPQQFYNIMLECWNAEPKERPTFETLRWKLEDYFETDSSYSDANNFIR

[6] = tested on: Receptor-type tyrosine-protein kinase FLT3 (Homo sapiens), P36888 [UNDEFINED MUTATION]; test: Inhibition of human […] mutant assessed as residual activity at 1 uM using Poly(Ala,Glu,Lys,Tyr)6:2:5:1 as substrate in presence of 33P-ATP by ProQinase assay relative to control
Chain of Receptor-type tyrosine-protein kinase FLT3 (Homo sapiens), P36888 [UNDEFINED MUTATION] (P36888 whole entry, looked up, change not shown): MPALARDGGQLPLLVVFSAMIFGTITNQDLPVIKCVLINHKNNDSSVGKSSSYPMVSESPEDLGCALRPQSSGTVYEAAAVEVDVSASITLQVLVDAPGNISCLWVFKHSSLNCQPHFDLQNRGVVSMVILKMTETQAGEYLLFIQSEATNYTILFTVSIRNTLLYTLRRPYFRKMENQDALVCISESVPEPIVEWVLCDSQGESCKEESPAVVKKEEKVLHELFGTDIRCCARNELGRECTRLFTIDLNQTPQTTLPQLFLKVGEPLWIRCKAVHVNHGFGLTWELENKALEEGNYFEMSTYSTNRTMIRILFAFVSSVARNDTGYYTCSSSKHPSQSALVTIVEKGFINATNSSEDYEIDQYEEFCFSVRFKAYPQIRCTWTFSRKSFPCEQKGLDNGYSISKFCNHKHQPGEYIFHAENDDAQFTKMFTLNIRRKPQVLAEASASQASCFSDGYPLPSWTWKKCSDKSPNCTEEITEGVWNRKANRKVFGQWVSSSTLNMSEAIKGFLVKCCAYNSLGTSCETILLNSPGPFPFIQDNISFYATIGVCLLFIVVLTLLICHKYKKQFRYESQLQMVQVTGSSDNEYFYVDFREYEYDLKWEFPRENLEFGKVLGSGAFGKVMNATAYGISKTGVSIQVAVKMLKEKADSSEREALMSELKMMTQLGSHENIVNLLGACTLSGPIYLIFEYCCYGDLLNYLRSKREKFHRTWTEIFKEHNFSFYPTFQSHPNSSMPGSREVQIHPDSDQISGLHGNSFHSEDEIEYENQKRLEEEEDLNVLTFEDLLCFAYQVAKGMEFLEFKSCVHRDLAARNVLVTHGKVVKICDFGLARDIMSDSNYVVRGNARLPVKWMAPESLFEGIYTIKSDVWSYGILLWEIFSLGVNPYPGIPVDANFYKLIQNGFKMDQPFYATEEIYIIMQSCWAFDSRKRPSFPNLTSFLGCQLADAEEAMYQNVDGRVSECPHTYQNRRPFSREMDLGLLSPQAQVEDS

[7] = target: Calcium/calmodulin-dependent protein kinase type 1D (Homo sapiens) (UniProt Q8IU85); test: Inhibition of CAMK1D (unknown origin) assessed as remaining activity at 1 uM by Kinome scan method relative to control
[8] = tested on: Hepatocyte growth factor receptor (Homo sapiens), P08581 [D1228H]; test: Inhibition of human MET D1228H mutant assessed as residual activity at 1 uM using poly(Ala,Glu,Lys,Tyr)6:2:5:1 as substrate in presence of 33P-ATP by ProQinase assay relative to control
[9] = target: Tyrosine-protein kinase Lck (Homo sapiens) (UniProt P06239); test: Inhibition of LCK (unknown origin) assessed as remaining activity at 1 uM by Kinome scan method relative to control
[10] = tested on: Epidermal growth factor receptor (Homo sapiens), P00533 [L861Q]; test: Inhibition of EGFR L861Q mutant (unknown origin) assessed as remaining activity at 1 uM by Kinome scan method relative to control
[11] = target: T1, Tyrosine-protein kinase Tec (Homo sapiens) (UniProt P42680); test: Inhibition of human TEC assessed as residual activity at 1 uM using polyEY as substrate in presence of 33P-ATP by ProQinase assay relative to control
T1 sequence (whole entry): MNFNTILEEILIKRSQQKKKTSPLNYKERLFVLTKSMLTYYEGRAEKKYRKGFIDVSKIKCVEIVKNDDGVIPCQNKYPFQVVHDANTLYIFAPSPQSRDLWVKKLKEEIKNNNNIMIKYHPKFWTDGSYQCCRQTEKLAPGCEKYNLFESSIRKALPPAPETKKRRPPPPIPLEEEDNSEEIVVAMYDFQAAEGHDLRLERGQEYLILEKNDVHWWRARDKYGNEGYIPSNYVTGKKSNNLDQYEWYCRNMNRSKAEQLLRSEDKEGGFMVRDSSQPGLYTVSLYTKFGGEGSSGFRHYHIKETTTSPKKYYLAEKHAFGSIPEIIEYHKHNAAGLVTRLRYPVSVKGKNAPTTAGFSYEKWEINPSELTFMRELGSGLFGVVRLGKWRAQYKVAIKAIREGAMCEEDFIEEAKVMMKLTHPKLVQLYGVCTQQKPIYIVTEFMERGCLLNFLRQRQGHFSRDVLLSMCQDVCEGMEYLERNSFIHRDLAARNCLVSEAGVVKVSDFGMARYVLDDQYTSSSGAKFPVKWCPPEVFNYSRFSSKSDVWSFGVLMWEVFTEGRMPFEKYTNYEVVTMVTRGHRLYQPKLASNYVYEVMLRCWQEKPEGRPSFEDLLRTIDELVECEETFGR

[12] = tested on: Hepatocyte growth factor receptor (Homo sapiens), P08581 [D1228N]; test: Inhibition of human MET D1228N mutant assessed as residual activity at 1 uM using poly(Ala,Glu,Lys,Tyr)6:2:5:1 as substrate in presence of 33P-ATP by ProQinase assay relative to control
[13] = target: RAC-alpha serine/threonine-protein kinase (Homo sapiens) (UniProt P31749); test: Inhibition of AKT1 (unknown origin) assessed as remaining activity at 1 uM by Kinome scan method relative to control
Chain of RAC-alpha serine/threonine-protein kinase (Homo sapiens) (P31749 whole entry): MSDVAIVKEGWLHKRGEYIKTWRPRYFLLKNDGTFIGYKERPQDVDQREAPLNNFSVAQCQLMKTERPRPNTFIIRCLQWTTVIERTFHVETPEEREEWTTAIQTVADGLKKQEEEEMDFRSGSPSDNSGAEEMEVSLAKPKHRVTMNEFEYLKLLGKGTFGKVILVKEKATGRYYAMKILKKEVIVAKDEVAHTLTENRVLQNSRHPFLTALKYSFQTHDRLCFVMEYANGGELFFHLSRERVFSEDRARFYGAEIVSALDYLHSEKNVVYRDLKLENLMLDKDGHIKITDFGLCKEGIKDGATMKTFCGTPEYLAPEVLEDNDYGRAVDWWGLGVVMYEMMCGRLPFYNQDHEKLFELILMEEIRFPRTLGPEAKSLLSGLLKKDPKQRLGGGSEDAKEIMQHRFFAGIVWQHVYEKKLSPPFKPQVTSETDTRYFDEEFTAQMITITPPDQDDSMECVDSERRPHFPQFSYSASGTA

[14] = target: Serine/threonine-protein kinase PAK 6 (Homo sapiens) (UniProt Q9NQU5); test: Inhibition of PAK6 (unknown origin) assessed as remaining activity at 1 uM by Kinome scan method relative to control
Chain of Serine/threonine-protein kinase PAK 6 (Homo sapiens) (Q9NQU5 whole entry, looked up): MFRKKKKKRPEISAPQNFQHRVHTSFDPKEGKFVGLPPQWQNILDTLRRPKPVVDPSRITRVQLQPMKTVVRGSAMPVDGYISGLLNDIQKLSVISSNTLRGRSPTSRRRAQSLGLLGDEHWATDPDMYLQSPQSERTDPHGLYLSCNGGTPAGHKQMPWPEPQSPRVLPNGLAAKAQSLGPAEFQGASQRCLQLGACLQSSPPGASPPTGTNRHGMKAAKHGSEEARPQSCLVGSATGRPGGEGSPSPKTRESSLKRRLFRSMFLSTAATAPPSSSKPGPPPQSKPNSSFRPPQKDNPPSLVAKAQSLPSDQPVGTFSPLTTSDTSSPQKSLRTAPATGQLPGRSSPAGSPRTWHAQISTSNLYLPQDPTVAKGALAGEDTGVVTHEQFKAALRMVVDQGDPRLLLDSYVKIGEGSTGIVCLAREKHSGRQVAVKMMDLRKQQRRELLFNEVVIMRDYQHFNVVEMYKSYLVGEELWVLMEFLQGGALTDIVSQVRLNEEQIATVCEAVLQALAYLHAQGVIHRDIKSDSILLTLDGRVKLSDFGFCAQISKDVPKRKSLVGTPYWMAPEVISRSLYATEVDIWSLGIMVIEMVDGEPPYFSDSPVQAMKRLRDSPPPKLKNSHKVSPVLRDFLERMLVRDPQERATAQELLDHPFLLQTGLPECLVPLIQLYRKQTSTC

[15] = target: T2, Serine/threonine-protein kinase D3 (Homo sapiens) (UniProt O94806); test: Inhibition of human PKCnu assessed as residual activity at 1 uM using bio-4xCHKT as substrate in presence of 33P-ATP by ProQinase assay relative to control
T2 sequence (whole entry): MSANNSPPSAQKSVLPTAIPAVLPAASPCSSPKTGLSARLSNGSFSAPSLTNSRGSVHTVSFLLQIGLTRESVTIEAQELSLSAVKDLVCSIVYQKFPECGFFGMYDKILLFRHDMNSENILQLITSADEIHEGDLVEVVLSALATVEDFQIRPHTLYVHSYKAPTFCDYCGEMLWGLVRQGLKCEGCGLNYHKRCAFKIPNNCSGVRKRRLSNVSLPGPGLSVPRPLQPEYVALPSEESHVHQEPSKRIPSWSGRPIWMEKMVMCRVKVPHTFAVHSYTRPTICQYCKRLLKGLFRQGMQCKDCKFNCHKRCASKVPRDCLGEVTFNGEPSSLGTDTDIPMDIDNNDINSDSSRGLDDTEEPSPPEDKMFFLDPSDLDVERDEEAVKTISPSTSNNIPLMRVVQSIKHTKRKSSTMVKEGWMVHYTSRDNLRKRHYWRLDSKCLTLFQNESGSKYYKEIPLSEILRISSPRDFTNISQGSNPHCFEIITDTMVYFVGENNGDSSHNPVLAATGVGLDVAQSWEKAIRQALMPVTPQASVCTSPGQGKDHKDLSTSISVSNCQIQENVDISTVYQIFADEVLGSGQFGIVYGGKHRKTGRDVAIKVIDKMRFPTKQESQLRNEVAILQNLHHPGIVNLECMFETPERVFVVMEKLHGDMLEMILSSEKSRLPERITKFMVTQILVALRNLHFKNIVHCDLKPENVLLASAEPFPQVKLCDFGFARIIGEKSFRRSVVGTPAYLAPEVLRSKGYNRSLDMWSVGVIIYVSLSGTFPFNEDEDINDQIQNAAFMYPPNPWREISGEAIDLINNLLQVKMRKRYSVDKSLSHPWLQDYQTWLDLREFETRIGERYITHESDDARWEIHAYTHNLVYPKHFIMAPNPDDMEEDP

Chain of Serine/threonine-protein kinase 17B (Homo sapiens) (O94768 whole entry): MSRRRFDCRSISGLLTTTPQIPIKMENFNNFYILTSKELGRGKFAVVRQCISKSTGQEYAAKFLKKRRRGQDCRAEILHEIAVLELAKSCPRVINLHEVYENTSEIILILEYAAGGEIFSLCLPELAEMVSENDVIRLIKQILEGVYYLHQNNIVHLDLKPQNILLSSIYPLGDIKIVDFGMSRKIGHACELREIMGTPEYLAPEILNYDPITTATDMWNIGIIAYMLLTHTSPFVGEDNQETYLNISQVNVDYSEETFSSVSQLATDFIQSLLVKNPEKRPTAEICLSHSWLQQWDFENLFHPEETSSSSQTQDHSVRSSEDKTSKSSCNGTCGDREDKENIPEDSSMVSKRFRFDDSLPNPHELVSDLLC

Structure (SMILES): O=C1c2ccc(Nc3ccc(F)cc3F)cc2CCc2ccc(OC[C@H](O)CO)cc21 [Skepinone-L]
- Activity [1]: 99%
- Activity [2]: 100%
- Activity [3]: 86%
- Activity [4]: 83%
- Activity [5]: 100%
- Activity [6]: 101%
- Activity [7]: 99%
- Activity [8]: 97%
- Activity [9]: 100%
- Activity [10]: 72%
- Activity [11]: 115%
- Activity [12]: 95%
- Activity [13]: 100%
- Activity [14]: 99%
- Activity [15]: 92%
